Results on nine molecules are retold here after PubChem BioAssay (NCI).

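Tested at 5 concentrations; 48 h exposure; 96-well plates; endpoints linearly interpolated, else capped at highest concentration. Here, GI50 denotes the concentration required for 50% inhibition of growth. TGI denotes the concentration required for complete inhibition of growth.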

Test systems include MOLT-4 leukemia; NCI-H522 lung; MCF7 breast; HCC-2998 colon; DLD-1 colon; UACC-62 melanoma; HCT-116 colon; RPMI-8226 leukemia; U251 CNS; HOP-18 NSCLC; DMS 114 small cell lung.
What all share (assay): DTP human tumour cell line panel, 48 h

For `CC12CCC(CC1)C(C)(C)O2`, the total growth inhibition concentration (TGI) came out at 77.2 µM in the test with MOLT-4 leukemia; 77.3 µM in the test on NCI-H522 lung; 27.9 µM with MCF7 breast; 97.7 µM with HCC-2998 colon; 103 µM in the test on DLD-1 colon; 69.6 µM in the test with UACC-62 melanoma. Further, the TGI with HCT-116 colon was determined as 81.3 µM; in the test on RPMI-8226 leukemia, 173 µM; with U251 CNS, 112 µM; in the test on HOP-18 NSCLC, 88.5 µM; with DMS 114 small cell lung, 123 µM. The GI50 with HCT-116 colon is 12.6 µM; in the test on HOP-18 NSCLC it was 16.7 µM.

Turning to `COc1ccc(-c2c(-c3ccccc3)c(C)nc3nc(SC)nc(SC)c23)cc1OC`, the TGI in the test on MOLT-4 leukemia is 71.3 µM; in the test with NCI-H522 lung, 35.4 µM; in the test with MCF7 breast, > 100 µM; with HCC-2998 colon, > 100 µM; in the test on UACC-62 melanoma, 39.7 µM; in the test with HCT-116 colon, 32.2 µM. Besides, the concentration for total growth inhibition (TGI) with RPMI-8226 leukemia is 26.1 µM; in the test with U251 CNS, 28.3 µM.

Turning to `O=C(O)/C=C/c1c[nH]c(=O)[nH]c1=O`, the TGI with MOLT-4 leukemia was > 281 µM; in the test on NCI-H522 lung, > 500 µM; in the test on MCF7 breast, > 500 µM; in the test with HCC-2998 colon, > 500 µM; in the test with DLD-1 colon, > 500 µM; in the test with UACC-62 melanoma, > 500 µM. Further, the concentration for total growth inhibition (TGI) in the test with HCT-116 colon, in the test with RPMI-8226 leukemia, with U251 CNS, in the test on HOP-18 NSCLC and with DMS 114 small cell lung was > 500 µM throughout.

Consider `C=C1C(=O)OC2CC(C)C3C4OC4C(O)C3(C)C(O)C12` (configuration not stated), for which the TGI in the test with MOLT-4 leukemia came out at 41.8 µM; in the test with NCI-H522 lung it was 26.4 µM; in the test with MCF7 breast, 66.7 µM; in the test on HCC-2998 colon, 75.8 µM; with DLD-1 colon, 87.8 µM; in the test with UACC-62 melanoma, 43.8 µM. Also, the TGI was 55.6 µM with HCT-116 colon; 51.1 µM in the test on RPMI-8226 leukemia; 96.6 µM in the test on U251 CNS; 72.4 µM in the test on HOP-18 NSCLC; 45.9 µM in the test with DMS 114 small cell lung.

Regarding `C=C=CC(NC(=O)c1ccccc1)(C(=O)O)C(F)(F)F` (configuration not stated), the concentration for total growth inhibition (TGI) in the test with MOLT-4 leukemia, with HCC-2998 colon, in the test with DLD-1 colon, in the test with HCT-116 colon, with RPMI-8226 leukemia and in the test on U251 CNS was > 100 µM in each case. For the same molecule, the concentration for total growth inhibition (TGI) with HOP-18 NSCLC and with DMS 114 small cell lung was > 100 µM in each case.

As to `O=C1/C(=C/c2ccc(O)cc2)COc2ccc(O)c(O)c21`, the GI50 with MOLT-4 leukemia was 1.99 µM; with NCI-H522 lung, 0.187 µM; with MCF7 breast it was 2.18 µM; in the test with HCC-2998 colon, 3.61 µM; with UACC-62 melanoma, 1.99 µM; in the test on HCT-116 colon it was 1.76 µM. The GI50 with RPMI-8226 leukemia was 0.499 µM; in the test on U251 CNS, 2.62 µM. Also, the concentration for total growth inhibition (TGI) in the test on MOLT-4 leukemia is > 100 µM; in the test on NCI-H522 lung, 0.596 µM; in the test on MCF7 breast, > 100 µM; with HCC-2998 colon, 13.1 µM; in the test on UACC-62 melanoma it was 4.36 µM; in the test with HCT-116 colon, 3.41 µM. The figures for the TGI in the test with RPMI-8226 leukemia and in the test with U251 CNS were 3.68 µM and 13.9 µM, respectively.

For the molecule `CCCCOP(C)(=O)C(NC(=O)OCC)(C(F)(F)F)C(F)(F)F` (configuration not stated), the TGI in the test with MOLT-4 leukemia, in the test with NCI-H522 lung, in the test with MCF7 breast, in the test with HCC-2998 colon, in the test with UACC-62 melanoma and in the test on HCT-116 colon was > 100 µM in each case. In addition, the TGI with RPMI-8226 leukemia and with U251 CNS was > 100 µM throughout.

Consider `Cc1cccc(N2C(=O)C3c4[nH]c5ccc(C)cc5c4C4CCC(C(C)(C)C)CC4C3C2=O)c1` (configuration not stated), for which the concentration for total growth inhibition (TGI) with MOLT-4 leukemia is 29.7 µM; with NCI-H522 lung, 45.7 µM; in the test with UACC-62 melanoma, > 100 µM; with RPMI-8226 leukemia, 41.1 µM; in the test on U251 CNS, 62.3 µM.

As for `CCCCCCCCCCCCCC[n+]1ccc(C)cc1`, the GI50 is 0.689 µM with MOLT-4 leukemia; 0.708 µM in the test with HCC-2998 colon; 1.08 µM with UACC-62 melanoma; 0.403 µM in the test with HCT-116 colon; 0.426 µM in the test on RPMI-8226 leukemia; 0.437 µM with U251 CNS. The concentration for total growth inhibition (TGI) with MOLT-4 leukemia is 2.65 µM; in the test on HCC-2998 colon, 2.04 µM; in the test on UACC-62 melanoma it was 2.57 µM; in the test with HCT-116 colon, 2.01 µM; in the test on RPMI-8226 leukemia it was 2.37 µM; in the test on U251 CNS it was 1.65 µM.

A word on the TGI: it is the concentration at which net growth stops. In general, GI50 refers to the concentration that inhibits growth by half.
